Measured values published in ChEMBL document CHEMBL3044847, “Evaluation of systemic acquired resistance inducers for control of Phytophthora capsici on squash” (Crop Prot, 2009).
Activity calls are given as the source filed them. The calls are words filed in the database; no cut-off is given here.

Key:
Phytophthora capsici [1] = experiment: Insecticidal activity against Phytophthora capsici assessed as inhibition of sporangium production at 25 to 1000 ug/ml after 4 days; type: functional, organism-based
Phytophthora capsici [2] = experiment: Insecticidal activity against Phytophthora capsici assessed as inhibition of zoospore germination at 25 to 1000 ug/ml after 4 days with 16 hr photoperiod; type: functional, organism-based
Phytophthora capsici [3] = experiment: Insecticidal activity against Phytophthora capsici assessed as inhibition of mycelial growth by measuring perpendicular colony diameter at 25 to 2000 ug/ml after 8 days; type: functional, organism-based
Cucurbita pepo [4] = experiment: Phytotoxicity in Cucurbita pepo (pumpkin) assessed as effect on host weight and height under greenhouse condition at 50 ug/ml; type: organism-based; details: in vivo
Cucurbita pepo [5] = experiment: Toxicity in Cucurbita pepo (pumpkin) assessed as effect on host weight and height under greenhouse condition at 25 to 50 ug/ml; type: organism-based; details: in vivo
Phytophthora capsici [6] = experiment: Insecticidal activity against Phytophthora capsici in Cucurbita pepo assessed as effect on host weight and height under greenhouse condition at 25 to 50 ug/ml; type: functional, organism-based
Phytophthora capsici [7] = experiment: Insecticidal activity against 10^3 spores/ml of Phytophthora capsici in Cucurbita pepo assessed as reduction of disease severity under greenhouse condition at 25 to 50 ug/ml applied as foliar spray after 1 week; type: functional, organism-based
Phytophthora capsici [8] = experiment: Insecticidal activity against Phytophthora capsici in Cucurbita pepo assessed as reduction of disease severity under greenhouse condition at 25 to 50 ug/ml after 1 week; type: functional, organism-based
Phytophthora capsici [9] = experiment: Insecticidal activity against Phytophthora capsici assessed as inhibition of sporangium production after 4 days; type: functional, organism-based
Phytophthora capsici [10] = experiment: Insecticidal activity against Phytophthora capsici assessed as inhibition of zoospore germination at 500 to 1000 ug/ml after 4 days with 16 hr photoperiod; type: functional, organism-based
Phytophthora capsici [11] = experiment: Insecticidal activity against 10^4 spores/ml of Phytophthora capsici in Cucurbita pepo assessed as reduction of disease severity under greenhouse condition at 25 to 50 ug/ml applied as foliar spray after 1 week; type: functional, organism-based
Phytophthora capsici [12] = experiment: Insecticidal activity against Phytophthora capsici assessed as inhibition of sporangium production at 500 to 1000 ug/ml after 4 days; type: functional, organism-based

Row | Compound | inhibition (Phytophthora capsici [1]) | inhibition (Phytophthora capsici [2]) | inhibition (Phytophthora capsici [3]) | Activity (Cucurbita pepo [4]) | Activity (Cucurbita pepo [5]) | Activity (Phytophthora capsici [6]) | Activity (Phytophthora capsici [7]) | Activity (Phytophthora capsici [8]) | inhibition (Phytophthora capsici [9]) | inhibition (Phytophthora capsici [10]) | Activity (Phytophthora capsici [11]) | inhibition (Phytophthora capsici [12])
1 | CC(N)CC(=O)O (racemic) | inactive | inactive | inactive | Non-toxic | Non-toxic | Active | Active | Active |  |  |  | 
2 | O=C(O)c1cc(Cl)nc(Cl)c1 [2,6-DICHLOROISONICOTINIC ACID] |  |  | Active | Toxic |  | Active | Active | Active | Dose-dependent effect | Active | Active | 
3 | CSC(=O)c1cccc2nnsc12 [ACIBENZOLAR-S-METHYL] |  | inactive | inactive | Toxic |  | Active | Active | Active |  |  | Active | Active
4 | O=C(O)c1ccccc1O [SALICYLIC ACID] |  |  |  |  | Non-toxic | Active |  |  |  | Active |  | 
